Assay results from patent publication US20120029187A1, “HALOALKYLSULFONANILIDE DERIVATIVE” (Nissan Chemical Industries, Ltd., priority 2009, published 2012).

Columns and labels:
Type in all cases: in vivo
large crabgrass [1] = test: Test Example 4: herbicidal effect in foliage treatment; conditions: dose 3.2 g/a
Outline: (§1)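 Visual herbicidal scores on a graded scale were recorded three weeks after foliar application. Compounds went on as diluted emulsifiable concentrates at predetermined g/a to plants grown 14 days in a 25 to 30° C greenhouse.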

Italian ryegrass [2] = test: as above; conditions: dose 3.2 g/a
Outline: as §1

water foxtail [3] = test: as above; conditions: dose 3.2 g/a
Outline: as §1

giant foxtail [4] = test: as above; conditions: dose 3.2 g/a
Outline: as §1

posumbu knotweed = test: as above; conditions: dose 3.2 g/a
Outline: as §1

common lambsquater [5] = test: as above; conditions: dose 3.2 g/a
Outline: as §1

wild oat [6] = test: as above; conditions: dose 3.2 g/a
Outline: as §1

beadstraw = test: as above; conditions: dose 3.2 g/a
Outline: as §1

velvetleaf [7] = test: as above; conditions: dose 3.2 g/a
Outline: as §1

common ragweed [8] = test: as above; conditions: dose 3.2 g/a
Outline: as §1

barnyardgrass [9] = test: as above; conditions: dose 3.2 g/a
Outline: as §1

large crabgrass [10] = test: Test Example 3: herbicidal effects in soil treatment; conditions: dose 3.2 g/a
Outline: (§2)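 Seeds were sown in sterilized diluvial soil and covered with about 1.5 cm of soil. Compounds, formulated as emulsifiable concentrates and diluted with water, were sprayed evenly over the soil surface at set doses in g/a. Herbicidal effect was scored on a rating scale three weeks later.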

Italian ryegrass [11] = test: as above; conditions: dose 3.2 g/a
Outline: as §2

water foxtail [12] = test: as above; conditions: dose 3.2 g/a
Outline: as §2

giant foxtail [13] = test: as above; conditions: dose 3.2 g/a
Outline: as §2

common lambsquater [14] = test: as above; conditions: dose 3.2 g/a
Outline: as §2

redroot pigweed [15] = test: as above; conditions: dose 3.2 g/a
Outline: as §2

wild oat [16] = test: as above; conditions: dose 3.2 g/a
Outline: as §2

velvetleaf [17] = test: as above; conditions: dose 3.2 g/a
Outline: as §2

common ragweed [18] = test: as above; conditions: dose 3.2 g/a
Outline: as §2

barnyardgrass [19] = test: as above; conditions: dose 3.2 g/a
Outline: as §2

bulrush [20] = test: Test Example 2: herbicidal effects during the vegetation period under submerged conditions; conditions: treatment during the vegetation period under submerged conditions; dose 2.52 g/a
Outline: (§3)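 Barnyardgrass, bulrush and ducksalad were co-sown in alluvial soil flooded to 4 cm and grown in a greenhouse at 25 to 30° C. At the 1- or 2-leaf stage, water-diluted emulsifiable concentrates went onto the water surface at set doses (g/a). Herbicidal effect was scored three weeks later on a graded scale.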

barnyardgrass [21] = test: as above; conditions: treatment during the vegetation period under submerged conditions; dose 2.52 g/a
Outline: as §3

ducksalad [22] = test: as above; conditions: treatment during the vegetation period under submerged conditions; dose 2.52 g/a
Outline: as §3

bulrush [23] = test: Test Example 1: herbicidal effects in preemergence treatment under submerged conditions; conditions: dose 2.52 g/a
Outline: (§4)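 Scoring 0 (<5% mortality) to 5 (≥90%) was done three weeks after preemergence application to the water surface of submerged (4 cm) alluvial soil, doses given as g per are. Weeds were seeded and 2.5-leaf rice transplanted on the treatment day; greenhouse at 25–30 °C.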

barnyardgrass [24] = test: as above; conditions: dose 2.52 g/a
Outline: as §4

ducksalad [25] = test: as above; conditions: dose 2.52 g/a
Outline: as §4

transplanted rice = test: Test Example 1: preemergence treatment under submerged conditions, effect on crop; conditions: dose 2.52 g/a
Outline: as §4

redroot pigweed [26] = test: Test Example 4: herbicidal effect in foliage treatment; conditions: dose 3.2 g/a, three weeks after application
Outline: as §1

common chickweed [27] = test: as above; conditions: dose 3.2 g/a, three weeks after application
Outline: as §1

common chickweed [28] = test: Test Example 3: herbicidal effects in soil treatment; conditions: dose 3.2 g/a
Outline: as §2

[29] = three weeks after the application

O=C1CCCON1Cc1ccccc1NS(=O)(=O)C(F)(F)F [III-12]
D: large crabgrass, herbicidal effect (large crabgrass [1]; [29]): 5 (mortality of 90% or above (nearly complete death)) | H: Italian ryegrass, herbicidal effect (Italian ryegrass [2]; [29]): 3 (mortality of at least 40% and less than 70%) | G: water foxtail, herbicidal effect (water foxtail [3]; [29]): 5 (mortality of 90% or above (nearly complete death)) | E: giant foxtail, herbicidal effect (giant foxtail [4]; [29]): 3 (mortality of at least 40% and less than 70%) | M: posumbu knotweed, herbicidal effect (posumbu knotweed; [29]): 0 (mortality of less than 5% (almost ineffective)) | L: common lambsquater, herbicidal effect (common lambsquater [5]; [29]): 0 (mortality of less than 5% (almost ineffective)) | F: wild oat, herbicidal effect (wild oat [6]; [29]): 0 (mortality of less than 5% (almost ineffective)) | O: beadstraw, herbicidal effect (beadstraw; [29]): 4 (mortality of at least 70% and less than 90%) | I: velvetleaf, herbicidal effect (velvetleaf [7]; [29]): 5 (mortality of 90% or above (nearly complete death)) | J: common ragweed, herbicidal effect (common ragweed [8]; [29]): 4 (mortality of at least 70% and less than 90%) | A: barnyardgrass, herbicidal effect (barnyardgrass [9]; [29]): 5 (mortality of 90% or above (nearly complete death)) | herbicidal effect, D: large crabgrass (large crabgrass [10]): 5 (mortality of 90% or above (nearly complete death)) | herbicidal effect, H: Italian ryegrass (Italian ryegrass [11]): 3 (mortality of at least 40% and less than 70%) | herbicidal effect, G: water foxtail (water foxtail [12]): 5 (mortality of 90% or above (nearly complete death)) | herbicidal effect, E: giant foxtail (giant foxtail [13]): 5 (mortality of 90% or above (nearly complete death)) | herbicidal effect, L: common lambsquater (common lambsquater [14]): 0 (mortality of less than 5% (almost ineffective)) | herbicidal effect, K: redroot pigweed (redroot pigweed [15]): 0 (mortality of less than 5% (almost ineffective)) | herbicidal effect, F: wild oat (wild oat [16]): 2 (mortality of at least 20% and less than 40%) | herbicidal effect, I: velvetleaf (velvetleaf [17]): 5 (mortality of 90% or above (nearly complete death)) | herbicidal effect, J: common ragweed (common ragweed [18]): 5 (mortality of 90% or above (nearly complete death)) | herbicidal effect, A: barnyardgrass (barnyardgrass [19]): 5 (mortality of 90% or above (nearly complete death)) | B: bulrush, herbicidal effect (evaluation scale 0-5) (bulrush [20]): 5 (mortality of 90% or above (nearly complete death)) | A: barnyardgrass, herbicidal effect (evaluation scale 0-5) (barnyardgrass [21]): 5 (mortality of 90% or above (nearly complete death)) | C: ducksalad, herbicidal effect (evaluation scale 0-5) (ducksalad [22]): 5 (mortality of 90% or above (nearly complete death)) | B: bulrush, herbicidal effect (evaluation scale 0-5) (bulrush [23]): 5 (mortality of 90% or above (nearly complete death)) | A: barnyardgrass, herbicidal effect (evaluation scale 0-5) (barnyardgrass [24]): 5 (mortality of 90% or above (nearly complete death)) | C: ducksalad, herbicidal effect (evaluation scale 0-5) (ducksalad [25]): 5 (mortality of 90% or above (nearly complete death)) | a: transplanted rice, effect on crop (evaluation scale 0-5) (transplanted rice): 2 (mortality of at least 20% and less than 40%)

CC1(C)CN(Cc2ccccc2NS(=O)(=O)C(F)(F)F)C(=O)CO1 [Compound I-15]
D: large crabgrass, herbicidal effect (large crabgrass [1]; three weeks after application): 4 (mortality of at least 70% and less than 90%) | H: Italian ryegrass, herbicidal effect (Italian ryegrass [2]; three weeks after application): 4 (mortality of at least 70% and less than 90%) | G: water foxtail, herbicidal effect (water foxtail [3]; three weeks after application): 5 (mortality of 90% or above (nearly complete death)) | E: giant foxtail, herbicidal effect (giant foxtail [4]; three weeks after application): 4 (mortality of at least 70% and less than 90%) | M: posumbu knotweed, herbicidal effect (posumbu knotweed; three weeks after application): 4 (mortality of at least 70% and less than 90%) | L: common lambsquater, herbicidal effect (common lambsquater [5]; three weeks after application): 3 (mortality of at least 40% and less than 70%) | K: redroot pigweed, herbicidal effect (redroot pigweed [26]): 3 (mortality of at least 40% and less than 70%) | F: wild oat, herbicidal effect (wild oat [6]; three weeks after application): 1 (mortality of at least 5% and less than 20%) | O: beadstraw, herbicidal effect (beadstraw; three weeks after application): 4 (mortality of at least 70% and less than 90%) | I: velvetleaf, herbicidal effect (velvetleaf [7]; three weeks after application): 5 (mortality of 90% or above (nearly complete death)) | N: common chickweed, herbicidal effect (common chickweed [27]): 4 (mortality of at least 70% and less than 90%) | J: common ragweed, herbicidal effect (common ragweed [8]; three weeks after application): 4 (mortality of at least 70% and less than 90%) | A: barnyardgrass, herbicidal effect (barnyardgrass [9]; three weeks after application): 5 (mortality of 90% or above (nearly complete death)) | D: large crabgrass, herbicidal effect (evaluation scale 0-5) (large crabgrass [10]): 5 (mortality of 90% or above (nearly complete death)) | H: Italian ryegrass, herbicidal effect (evaluation scale 0-5) (Italian ryegrass [11]): 5 (mortality of 90% or above (nearly complete death)) | G: water foxtail, herbicidal effect (evaluation scale 0-5) (water foxtail [12]): 5 (mortality of 90% or above (nearly complete death)) | E: giant foxtail, herbicidal effect (evaluation scale 0-5) (giant foxtail [13]): 3 (mortality of at least 40% and less than 70%) | L: common lambsquater, herbicidal effect (evaluation scale 0-5) (common lambsquater [14]): 4 (mortality of at least 70% and less than 90%) | K: redroot pigweed, herbicidal effect (evaluation scale 0-5) (redroot pigweed [15]): 5 (mortality of 90% or above (nearly complete death)) | F: wild oat, herbicidal effect (evaluation scale 0-5) (wild oat [16]): 3 (mortality of at least 40% and less than 70%) | I: velvetleaf, herbicidal effect (evaluation scale 0-5) (velvetleaf [17]): 5 (mortality of 90% or above (nearly complete death)) | N: common chickweed, herbicidal effect (evaluation scale 0-5) (common chickweed [28]): 4 (mortality of at least 70% and less than 90%) | J: common ragweed, herbicidal effect (evaluation scale 0-5) (common ragweed [18]): 5 (mortality of 90% or above (nearly complete death)) | A: barnyardgrass, herbicidal effect (evaluation scale 0-5) (barnyardgrass [19]): 5 (mortality of 90% or above (nearly complete death)) | B: bulrush, herbicidal effect (evaluation scale 0-5) (bulrush [20]): 5 (mortality of 90% or above (nearly complete death)) | A: barnyardgrass, herbicidal effect (evaluation scale 0-5) (barnyardgrass [21]): 5 (mortality of 90% or above (nearly complete death)) | C: ducksalad, herbicidal effect (evaluation scale 0-5) (ducksalad [22]): 5 (mortality of 90% or above (nearly complete death)) | B: bulrush, herbicidal effect (evaluation scale 0-5) (bulrush [23]): 5 (mortality of 90% or above (nearly complete death)) | A: barnyardgrass, herbicidal effect (evaluation scale 0-5) (barnyardgrass [24]): 5 (mortality of 90% or above (nearly complete death)) | C: ducksalad, herbicidal effect (evaluation scale 0-5) (ducksalad [25]): 5 (mortality of 90% or above (nearly complete death)) | a: transplanted rice, effect on crop (evaluation scale 0-5) (transplanted rice): 1 (mortality of at least 5% and less than 20%)
